# Measurements reported in US10106853B2, “CUL4B as predictive biomarker for cancer treatment” (CORNELL UNIVERSITY, priority 2012, dated 2018).
# Read-outs that look alike come from different tables or passages of the source.
# Legend:
# BT474 xenograft tumors = assay type: in vivo, athymic Nu/J nude mice; conditions: for Xenograft tumor growth under topotecan treatment: topotecan i.p. 5 mg/g every fourth day
# Experimental: (§1) FIG. 5. CUL4B inactivation sensitized BT474 xenograft tumors to topotecan. Stable TGL-BT474 cells (BT474 cells stably expressing GFP-luciferase reporter) were established by retroviral transduction and FACS sorting. The resulting TGL-BT474 cells were infected with recombinant lentiviruses expressing non-targeting shCtrl, shCUL4A or shCUL4B, followed by selection of infected cells with 4 μg/ml puromycine for one week. A) Knockdown of endogenous CUL4A and 4B were verified by immunoblotting. B, C) 1×10^7 of control, CUL4A^k/d, or CUL4B^k/d TGL-BT474 cells were injected subcutaneously in the right flank of each athymic Nu/J nude mice, treated (i.p.) with toptoecan at a dose of 5 mg/g on every 4th day, and tumor burden was measure by bioluminescent imaging. Statistical significance in tumor burden between control and CUL4A^k/d or CUL4B^k/d xenograph are assessed by a two-tailed unpaired student t-test (***: p<0.001). D) Growth rate of control, CUL4A^k/d and CUL4B^k/d BT474 cells in vitro. The same number of control, CUL4A^k/d and CUL4B^k/d BT474 cells were seeded to 96-well plates and cell proliferation was measured using the XTT Cell Proliferation Assay Kit. The data represent the mean value of fold change of cells. Bars indicate the S.E. of six independent experiments. Statistical significance in cellular rate between control cells and CUL4A^k/d or CUL4B^k/d cells are assessed by student's t-test. E-F) Growth rate of control, CUL4A^k/d and CUL4B^k/d TGL-BT474 xenograft in vivo. 1×10^7 of control, CUL4A^k/d or CUL4B^k/d TGL-BT474 cells were injected subcutaneously in the right flank of each mouse of athymic Nu/J nude mice, and tumor burden was measured by bioluminescent imaging (E). On the 22nd day, tumors were collected, and the weight of exercised tumors was measured after mice were sacrificed (F).
# The effect of CUL4B knockdown on an organism's response to CPT treatment was tested in vivo by examining the sensitivity of BT474-CUL4B^k/d, BT474-CUL4A^k/d and control BT474 xenograft tumors to topotecan treatment. Topotecan, (S)-10-[(dimethylamino)methyl]-4-ethyl-4,9-dihydroxy-1H-pyrano[3′,4′:6,7]indolizino[1,2-b]quinoline-3,14(4H,12H)-dione monohydrochloride, is an FDA-approved Top1-directed chemotherapy for the treatment of ovarian, cervical and small cell lung cancer, under the trade name Hycamtin™. Nude mice bearing BT474 xenografts on dorsal skin were treated with topotecan every four (4) days for a period of 44 days. Prior to topotecan administration, the size of the xenograft tumors were identical (FIG. 5). Topotecan was then administered via intraperitoneal injection, and tumor mass was monitors by bioluminescent imaging in four day intervals. […] To rule out the possibility that the growth rate of xenografts were altered during the CUL4B inactivation process (treatment with shRNA) the tumor mass of the three xenograft groups were measured in the absence of topotecan treatment and the weight of the exercised xenograft tumors were analyzed.
# Six week old Female athymic Nu/J nude mice were purchased from Jackson Labs. Mice were housed in laminar air-flow cabinets under specific pathogen-free conditions. Nude mice were inoculated with 0.36 mg 60-day-release 17-b-estradiol pellets (Innovative Research) 24 to 48 hours before implantation of BT-474 cells. 1×10^7 BT-474 cells in 50 ul DMEM medium and 300 ul diluted BD Matrigel™ Basement Membrane Matrix (BD Bioscience, Matrix: PBS is 2:1) were injected subcutaneously in the right flank of each mouse. Tumors were detected once every four days by an IVIS Imaging System (Caliper Life Sciences). When tumors were available to be detected, mice were initially treated with topotecan. Topotecan was administered intraperitoneally on every fourth day from the initiation of therapy at doses of 5 mg/g.
# The IVIS Imaging System (Caliper life sciences) was used for bioluminescent image acquisition and analysis. […]
# BT474 cells = experiment: XTT Cell Proliferation Assay, growth rate of BT474 cells in vitro; assay type: cell-based, Human; conditions: knockdown cells vs control, no drug
# Experimental: as §1, with “B, C) 1×10^7 of control, CUL4A^k/d, or CUL4B^k/d TGL-BT474 cells were injected subcutaneously in the right flank of each athymic Nu/J nude mice, treated (i.p.) with toptoecan at a dose of 5 mg/g on every 4th day, and tumor burden was measure by bioluminescent imaging.” left out, “D) Growth rate of control, CUL4A^k/d and CUL4B^k/d BT474 cells in vitro.” left out, “The data represent the mean value of fold change of cells. Bars indicate the S.E. of six independent experiments.” left out, “E-F) Growth rate of control, CUL4A^k/d and CUL4B^k/d TGL-BT474 xenograft in vivo.” left out
# Top1 = target: T1, Top1 (Homo sapiens, UniProt P11387); experiment: CPT-induced TOP1 down regulation assay (immunoblotting); assay type: cell-based; conditions: BT474 cells, lentiviral shRNA; CPT 50 μM, 1 to 1.5 hr
# T1 construct: CPT-induced TOP1 degradation in breast cancer cell lines; host or cells: human breast cancer cell lines BT474, BT20, MCF-7, MDA-MB-231, T47D, Sk-Br-3 (MCF-10A as control)
# T1 sequence (P11387 1-765): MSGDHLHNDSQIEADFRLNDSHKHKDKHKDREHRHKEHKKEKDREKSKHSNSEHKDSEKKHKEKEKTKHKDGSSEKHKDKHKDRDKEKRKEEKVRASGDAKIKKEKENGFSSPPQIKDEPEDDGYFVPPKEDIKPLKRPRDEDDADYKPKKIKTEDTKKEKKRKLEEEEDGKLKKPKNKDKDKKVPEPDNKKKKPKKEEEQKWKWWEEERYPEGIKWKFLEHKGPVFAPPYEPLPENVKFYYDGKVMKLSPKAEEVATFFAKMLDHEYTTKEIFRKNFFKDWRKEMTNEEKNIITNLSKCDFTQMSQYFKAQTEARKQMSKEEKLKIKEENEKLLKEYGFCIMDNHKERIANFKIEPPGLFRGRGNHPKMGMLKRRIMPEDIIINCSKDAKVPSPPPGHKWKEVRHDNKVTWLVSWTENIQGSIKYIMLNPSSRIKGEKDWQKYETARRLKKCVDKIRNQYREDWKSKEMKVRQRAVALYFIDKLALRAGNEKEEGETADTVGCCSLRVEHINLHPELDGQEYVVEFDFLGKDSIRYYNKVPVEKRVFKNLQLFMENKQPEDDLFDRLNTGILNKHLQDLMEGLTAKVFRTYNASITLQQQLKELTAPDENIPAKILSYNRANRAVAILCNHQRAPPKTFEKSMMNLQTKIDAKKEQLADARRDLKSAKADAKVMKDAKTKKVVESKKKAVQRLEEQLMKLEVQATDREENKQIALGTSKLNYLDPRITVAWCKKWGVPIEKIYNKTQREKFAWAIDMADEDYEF
# Experimental: FIG. 1. CPT-induced TOP1 degradation in breast cancer cell lines. A) Expression of endogenous CUL4A and 4B in breast cancer cell lines. Total cell lysates were prepared from the indicated breast cancer cell lines and subjected to SDS PAGE and immunoblotting with antibodies against CUL4A, 4B and α-tubulin. The non-cancerous MCF-10A cell line was used as a control for comparison. B) CPT-induced TOP1 degradation in breast cancer cell lines. Cells were treated with 12.5 μM CPT or 1% DMSO for 4 hours, replenished with CPT-free fresh medium and incubated at 37° C. for 30 minutes to reverse the formation of TOP1 cleavable complex. Cells were then lysed and immunoblotted with the TOP1 and α-tubulin antibodies.
# FIG. 2. CUL4B interacted with Top1 and induced Top1 degradation in the presence of CPT. A) Knockdown of CUL4B impaired CPT-induced Top1 degradation. BT474 cells were infected with lentiviral shCUL4B, shCUL4A or control non-targeting shRNA, and selected for stable CUL4B^k/d or CUL4A^k/d cells upon treatment with puromycin. Following treatment with CPT (50 μM) for 1 hour, cells were replenished with CPT-free fresh medium and incubated at 37° C. for 30 minutes. Top1 degradation was assessed by immunoblotting with an anti-Top1 antibody. Levels of α-tubulin were measured as a loading control. B) Association of CUL4B with Top1 following CPT treatment. BT474 cells were treated with proteosome inhibitor MG132 (15 μM) for 3 hours, and were subjected to crosslinking with 0.2 mM Dithiobis[succinimidyl propionate](DSP) for the last 30 min at room temperature. Cell lysates were prepared, and immunoprecipitated with the anti-Top1 or anti-CUL4B antibodies, and then immunoblotted using antibodies against CUL4B or Top1, respectively. IgG immunoprecipitates served as the negative control. C) Knockdown of CUL4B using a second shCUL4B-2 impaired CPT-induced Top1 degradation. BT474 cells were infected with lentiviral shCUL4B-2, shCUL4A-2 or control non-targeting shRNA and selected for stable CUL4B^k/d or CUL4A^k/d cells upon treatment with puromycin. Following treatment with CPT (50 μM) for 1.5 hr, cells were replenished with CPT-free fresh medium and incubated at 37° C. for 30 min. Top1 degradation was assessed by immunoblotting with the anti-Top1 antibody. Levels of α-tubulin were measured as a loading control. D) CUL4B inactivation sensitized BT474 cells to cytotoxic killing by camptothecin. BT474, BT474-CUL4A^k/d or BT474-CUL4B^k/d cells were synchronized with 1 μM nocodazole for 13 hours released in fresh medium, treated with the indicated concentrations of CPT for three days, and subjected to the XTT assay to measure the cytotoxic responses to CPT. […] The bars indicate the S.E. of six independent experiments. Statistical significance in cellular response to CPT between control BT474 cells and CUL4A^k/d or CUL4B^k/d cells were assessed by a two-tailed unpaired student t-test (***: p<0.001). The same results were obtained with a second lentiviral shRNA for CUL4A and CUL4B, as well as in T47D breast cancer cells. E, F) Knockdown of CUL4B increased the sensitivity of T47D cells to camptothecin. […] Statistical significance in cellular response to camptothecin between control cells and CUL4A^k/d or CUL4B^k/d BT474 cells are assessed by student's t-test.
# CPT-induced Top1 degradation was monitored by immunoblotting of the alkaline lysates. […]
molecule,measurement,setting,value
"CC[C@@]1(O)C(=O)OCc2c1cc1n(c2=O)Cc2cc3c(CN(C)C)c(O)ccc3nc2-1.Cl [topotecan, (S)-10-[(dimethylamino)methyl]-4-ethyl-4,9-dihydroxy-1H-pyrano[3′,4′:6,7]indolizino[1,2-b]quinoline-3,14(4H,12H)-dione monohydrochloride]",Xenograft tumor growth under topotecan treatment,"BT474 xenograft tumors; BT474-CUL4A k/d xenografts, 44 days",continue to grow
same,Xenograft tumor growth under topotecan treatment,BT474 xenograft tumors; BT474-CUL4B k/d xenografts vs control and CUL4A k/d groups (p<0.001),largely attenuated
same,Xenograft tumor growth under topotecan treatment,"BT474 xenograft tumors; control BT474 xenografts, 44 days",continue to grow
same,Size of control and shCUL4A xenografts relative to shCUL4B xenografts,BT474 xenograft tumors; final day of topotecan treatment,5 fold
same,Detection of xenografts by bioluminescent imaging,"BT474 xenograft tumors; several shCUL4B xenografts, final day of topotecan treatment",not detectable
shCUL4A: lentiviral shRNA CUL4A sequence purchased from Sigma Aldrich (CCGGGCAGAACTGATCGCAAAGCATCTCGAGATGCTTTGCGATCAGTTCTGCTTTTT),Growth rate of xenografts vs control,"BT474 xenograft tumors; without topotecan administration, tumor burden and excised tumor weight",no significant difference
same,Growth rate of cultured BT474 cells in vitro,BT474 cells,reduced the growth rate slightly
shCUL4B-2: second lentiviral shRNA CUL4B sequence purchased from Sigma Aldrich (CCGGGCAATTCTTCAGAAAGGTTTACTCGAGTAAACCTTTCTGAAGAATTGCTTTTT),Effect of shRNA knockdown on CPT-induced Top1 degradation,Top1,impaired
